Patent US20250059139A1, “COMPOUNDS FOR TREATMENT OF CANCER” (THE JOHNS HOPKINS UNIVERSITY, priority 2021, published 2025)

How the values were obtained:
panel of 68 kinases = test: Targeted kinase screen (Kinase Profiling Service, Thermo Fisher Scientific); format: biochemical; settings: 10 μM
Experimental: Targeted kinase screen. Inhibition of enzymatic activity of a panel of kinases in the presence of 10 μM ESATA-20 was analyzed by the Kinase Profiling Service at Thermo Fisher Scientific.

HUVEC = test: mRNA expression of HUVEC in 3D-fibrin gels with HDF-conditioned media; format: cell-based, human; settings: Fibroblast Conditioned Media: Yes, TasQ (10 μM): Yes
Experimental: Three Dimensional (3D) Endothelial Sprouting Assay. The assay was performed using a minimum of 3 replicate wells of a 48 well tissue culture plate per drug dose per experiment, repeated 3 independent times in which human umbilical vein endothelial cells (HUVECs) obtained from Lonza Walkersville Inc (Walkersville, MD) attached to gelatin-coated dextran microcarrier bead are embedded in a fibrin matrix as described previously (Brennen et al. Oncotarget 7, 71298-71308 (2016)).
Besides its therapeutic effects on cancer cells, TasQ's anti-cancer efficacy also involves its dose-dependent anti-angiogenic activity (see, e.g., Isaacs 2006, Olsson 2010, Dalrymple 2012), Isaacs 2013, Isaacs 2014, Brennen 2016). To clarify the MoA for this anti-angiogenic activity, a 3-dimensional (3D) endothelial cell sprouting assay was used. In this assay, human umbilical vein endothelial cells (HUVECs) in basal media supplemented with VEGF, EGF, FGF, IGF1 and 2% FBS in standard 2D cultures are attached to collagen-coated beads embedded in a 3D-fibrin gel in the same growth factor-supplemented media. […] This lack of sprouting is associated with an upregulation in Mef-2c mRNA (Table 2) and protein (FIG. 38), and its target genes (Table 2) like Alpha 2 Macroglobulin (A2M). […] When the 3D-fibrin gels are further supplemented with conditioned media (CM) from human dermal fibroblasts (HDF) to provide additional angiogenic factors typically present within the TME A2M (Nakatsu et al. Microvasc Res 66, 102-112 (2003)), expression of the MEF-2c target genes, including A2M, is blocked (Table 2); enabling endothelial cell proliferation and invasion into the gels (i.e., “sprouting”); eventually forming canalized and anastomosing neovascular tubes within 7 days (FIG. 37). Importantly, 3D-sprouting occurs (FIG. 37), even when HIF-1α expression is KD in the HUVEC cells (FIG. 39).

HDAC4 KD LNCaP cells = test: In vitro growth of HDAC4 KD LNCaP cells; format: cell-based, human
Experimental: Generation of stable shRNA Knock Down (KD) Variants. Stable shRNA HDAC4, and HIF-1α knockdown (KD) were as described previously (id.). Stable shRNA AHR KD as described previously (id.) using […] (SEQ ID NO: 1) as the targeting sequence.
Similarly, under such optimal conditions, knocking down HDAC4 expression by 50% with shRNA only decreases the growth of LNCaP cells by <25%, which is equivalent to the inhibition by TasQ at 10 μM (FIG. 22). […] In contrast to normoxic in vitro conditions, cancers outgrow their blood supply in vivo, producing a TME that is hypoxic, nutrient-limited, and acidic (low pH). For example, when prostate cancer xenografts growing subcutaneously reach a size of ˜0.2-0.3 cc, the TME is already hypoxic with a pO2 of 3.6+/−1.5 mmHg compared to 37.5+/−8.6 mmHg in normal tissue (Dalrymple et al. Prostate 72, 638-648 (2012)). When LNCaP cells are switched from 21% O2 (i.e., 160 mmHg) to a hypoxic condition of 1% O2 (i.e., 7.6 mmHg), their growth decreases by 50% (FIG. 22). This hypoxia-induced growth inhibition is enhanced by either knocking down HDAC4 or by treatment with TasQ (FIG. 22).

[1] = tested on: CWR-22Rv1 dominant-positive mutant HIF-1α cells; test: In vivo growth of CWR-22Rv1 xenografts expressing dominant-positive mutant HIF-1α; parameters: species or system human; settings: daily oral 10 mg/kg/d
Excerpt: Prostate Cancer Models. The source, history, and characteristics of the human prostate cancer cell lines and PDXs used, as well as cell culture conditions for their in vitro maintenance and the in vivo protocol for xenograft growth in triple immune-deficient NSG (i.e. NOD.Cg-PrkdcScidIl2rgtmlWji/Szj), adult (>8 week old) male mice obtained from the Sidney Kimmel Comprehensive Cancer Center (SKCCC) Animal Core Facility are described previously (Isaacs 2013; Brennen et al. JCI Insight. 2021, 6(8):e146827; Zhu et al. Oncogene 2020, 39(45): 6935-6949). […] In vitro growth curves were determined as described (Isaacs 2013). In vivo growth response to oral daily TasQ (10 mg/kg/d) of TRAMP-C2 mouse prostate cancers was evaluated in C57BL/6J syngeneic wild type vs. NOX-2 vs. iNOS null male mice obtained from Jackson Laboratory (Bar Harbor, ME). Growth response to oral daily TasQ (10 mg/kg/d) of TRAMP-C2 and B6CaP mouse prostate cancers was also evaluated in S100A9 null C57BL′6J male mice obtained from Dmitry Gabrilovich (Wistar Institute). […] In vitro growth curves were determined as described (Isaacs 2013). Growth response to daily oral TasQ vs. ESATA-20 (both at 10 mg/kg/d) of Myc-CaP-CR mouse prostate cancer was evaluated in syngeneic FVB/NJ castrate male mice from Jackson Laboratory. […]

Compound	change in activity in any of the 68 kinases tested (panel of 68 kinases)	A2M Gene Expression (FPKM), Mef-2c Target Gene (HUVEC)	Adamt59 Gene Expression (FPKM), Mef-2c Target Gene (HUVEC)	Apinr Gene Expression (FPKM), Mef-2c Target Gene (HUVEC)	Ets1 Gene Expression (FPKM) (HUVEC)	Ets2 Gene Expression (FPKM) (HUVEC)	KDR (VEGFR2) Gene Expression (FPKM), Ets Target Gene (HUVEC)	LI1 (VEGFR1) Gene Expression (FPKM), Ets Target Gene (HUVEC)	Mef-2c Target Gene Expression, Gene Expression (FPKM) (HUVEC)	NR4A1 Gene Expression (FPKM), Mef-2c Target Gene (HUVEC)	NR4A2 Gene Expression (FPKM), Mef-2c Target Gene (HUVEC)	SerpinB1 Gene Expression (FPKM), Mef-2c Target Gene (HUVEC)	Spry Gene Expression (FPKM), Mef-2c Target Gene (HUVEC)	Stc1 Gene Expression (FPKM), Mef-2c Target Gene (HUVEC)	effect on HDAC4 KD cells exposed to hypoxia (HDAC4 KD LNCaP cells; 10 μM, 1% O2)	inhibition at 10 µM (HDAC4 KD LNCaP cells; Homo sapiens, LNCaP, normoxic)	growth inhibition of dominant-positive mutant HIF-1α tumors [1]
COc1cccc2c1c(O)c(C(=O)N(c1ccc(C(F)(F)F)cc1)C1CCCCC1)c(=O)n2C [ESATA-20]	< 15%																
COc1cccc2c1c(O)c(C(=O)N(C)c1ccc(C(F)(F)F)cc1)c(=O)n2C [TasQ, Tasquinimod]		257 FPKM	89.2 FPKM	81.1 FPKM	73 FPKM	45.2 FPKM	99.3 FPKM	106,830 FPKM	21,217 FPKM	1,598 FPKM	297 FPKM	4,926 FPKM	11,728 FPKM	18,619 FPKM	the cells die	> 50%	< 25%
